In paper PMC7251097, “Aspartate/asparagine-β-hydroxylase: a high-throughput mass spectrometric assay for discovery of small molecule inhibitors” (Scientific Reports, 2020):
Counter-ions that a name gives are not always drawn. Like-named read-outs stand apart in the source and are kept apart here.

Biological target: T1, His6-AspH315–758 (human aspartate/asparagine-β-hydroxylase, AspH) (Homo sapiens, UniProt Q12797)
T1 construct: N-Terminally His6-tagged human AspH315–758 (His6-AspH315–758) was produced in E. coli BL21 (DE3) cells; made in house; host or cells: E. coli BL21 (DE3), pET-28a(+) vector
T1 sequence (Q12797 315-758): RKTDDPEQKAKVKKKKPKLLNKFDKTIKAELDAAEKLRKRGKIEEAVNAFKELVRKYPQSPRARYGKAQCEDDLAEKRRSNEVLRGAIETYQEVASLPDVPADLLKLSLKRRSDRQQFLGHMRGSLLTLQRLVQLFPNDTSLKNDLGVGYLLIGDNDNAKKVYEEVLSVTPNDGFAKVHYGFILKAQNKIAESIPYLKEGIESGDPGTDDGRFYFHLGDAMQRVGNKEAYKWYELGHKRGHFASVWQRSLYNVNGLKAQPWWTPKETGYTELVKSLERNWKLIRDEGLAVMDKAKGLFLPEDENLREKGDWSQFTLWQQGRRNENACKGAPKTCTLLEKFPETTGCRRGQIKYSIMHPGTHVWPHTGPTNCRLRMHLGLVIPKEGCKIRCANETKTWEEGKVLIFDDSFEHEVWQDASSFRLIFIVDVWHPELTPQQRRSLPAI
Experiment: SPE-MS AspH inhibition assay (LOPAC screen at fixed 20 μM and IC50 dose-response), hydroxylation of cyclic peptide hFX-CP101–119
Format: biochemical

[1] = LOPAC compound at 20uM, plate 3, conversion of substrate peptide
[2] = LOPAC compound at 20uM, plate 2, conversion of substrate peptide
[3] = LOPAC compound at 20uM, plate 2, normalised to DMSO and 2,4-PDCA controls, read-out: Plate 2 (% inhibition)
[4] = LOPAC Plate 4, compound at 20 uM, substrate conversion
[5] = LOPAC Plate 4, compound at 20 uM, read-out: % inhibition
[6] = plate 5 (Pfitzer), test compounds at fixed 20 μM
[7] = plate 5 (Pfitzer), test compounds at fixed 20 μM, mean conversion DMSO 32.88
[8] = LOPAC compound at fixed 20 uM, plate 1, normalised to DMSO and 2,4-PDCA controls
[9] = LOPAC compound at fixed 20 uM, substrate conversion, plate 1
[10] = LOPAC Plate 4, compound at 20 uM

Q: How did the “Plate 3 (% conversion)” value [1] turn out when CC(CCc1ccccc1)NC(C)C(O)c1ccc(O)cc1 (stereo not shown) [Nylidrin hydrochloride] was run?
A: 36.07%

Q: How did the “Plate 2 (% conversion)” value [2] turn out when Nc1ncnc2c1c(-c1ccc(Oc3ccccc3)cc1)cn2C1CCCC1 was run?
A: 45.34%

Q: What about the “Plate 2 (% inhibition)” value (LOPAC compound at 20uM, plate 2, normalised to DMSO and 2,4-PDCA controls) of the same molecule?
A: -28.02%

Q: For Cl.OCc1c[nH]cn1 [4-Imidazolemethanol hydrochloride], which “Plate 2 (% conversion)” value is on record?
A: 36.75%

Q: And the “Plate 2 (% inhibition)” value (20 µM)?
A: -2.37%

Q: NCCCCCCCCCCN [1,10-Diaminodecane] was tested. Which “Plate 2 (% conversion)” value [2] did it give?
A: 36.39%

Q: What about the inhibition at 20 µM [3] of the same molecule?
A: -1.3%

Q: For CC(C)(C)c1ccc(C(O)CCCN2CCC(C(O)(c3ccccc3)c3ccccc3)CC2)cc1 (stereo not shown) [Terfenadine], which “% conversion” value [4] is on record?
A: 45.15%

Q: And the inhibition at 20 µM [5]?
A: -25.4%

Q: How did the “Plate 3 (% conversion)” value turn out when Nc1nc2ccc(Cl)cc2n2c(-c3ccccc3)nnc12 [CP-66713] was run?
A: 39.27%

Q: What about the “Plate 5 (% conversion)” value of the same molecule?
A: 29.84%

Q: And the “Plate 5 (% inhibition)” value?
A: 19.04%

Q: Which results are given for COc1ccc(C2(O)OC(=O)C(c3ccc4c(c3)OCO4)=C2Cc2cc(OC)c(OC)c(OC)c2)cc1 (stereo not shown) [PD-156707]?
A: % conversion [4]: 36.15%; inhibition at 20 µM [5]: 0.95%; Plate 5 (% inhibition) [6]: 18.88%; Plate 5 (% conversion) [7]: 29.89%

Q: With Cc1cnc(C(=O)NCCc2ccc(S(=O)(=O)NC(=O)NC3CCCCC3)cc2)cn1 [Glipizide] as the molecule, how does the inhibition at 20 µM [3] read?
A: -8.88%

Q: With Nc1nnc(-c2cccc(Cl)c2Cl)c(N)n1 [Lamotrigine] as the molecule, how does the “Plate 3 (% conversion)” value [1] read?
A: 33.75%

Q: How did the “% conversion” value turn out when O=C(O)[C@H]1CCCN[C@H]1C(=O)O (racemic) [(±)-cis-Piperidine-2,3-dicarboxylic acid] was run?
A: 39.41%

Q: What about the “% inhibition” value (20 µM) of the same molecule?
A: -8.61%

Q: Cn1cc(C(=O)OCC2CCN(CCNS(C)(=O)=O)CC2)c2ccccc21 [GR 113808] was tested. Which “Plate 1 (% inhibition)” value [8] did it give?
A: -5.71%

Q: What about the “Plate 1 (% conversion)” value [9] of the same molecule?
A: 37.79%

Q: How did the “% inhibition” value [10] turn out when PD-184161 was run?
A: 6.57%

Q: What about the “% conversion” value [4] of the same molecule?
A: 34.23%

Q: And the “Plate 5 (% inhibition)” value [6]?
A: 40.35%

Q: What about the “Plate 5 (% conversion)” value [7] of the same molecule?
A: 22.58%

Q: With CCN(CC)c1ncnc2c1ncn2[C@@H]1O[C@H](COP(=O)([O-])OP(=O)([O-])C(Br)(Br)P(=O)([O-])O)[C@@H](O)[C@H]1O.[Na+].[Na+].[Na+] [ARL 67156 trisodium salt] as the molecule, how does the “Plate 1 (% inhibition)” value [8] read?
A: 82.09%

Q: And the “Plate 1 (% conversion)” value [9]?
A: 8.30%

Q: Which “Plate 1 (% inhibition)” value [8] does the source give for NC(N)=NCCCCN=C(N)N [Arcaine sulfate] here?
A: -5.14%

Q: What about the “Plate 1 (% conversion)” value [9] of the same molecule?
A: 37.60%

Q: For S=C([S-])OC1CC2CC1C1CCCC21.[K+] [D-609 potassium], which “% conversion” value is on record?
A: 29.00%

Q: How did the “Plate 1 (% conversion)” value turn out when Cc1cc(NC(=O)Nc2ccc3c(ccn3C)c2)sn1 [SB 204741] was run?
A: 37.70%

Q: What about the “Plate 1 (% inhibition)” value of the same molecule?
A: -5.45%

Q: How did the “% conversion” value turn out when CP-335963 was run?
A: 27.86%

Q: What about the “Plate 5 (% inhibition)” value of the same molecule?
A: -8.78%

Q: With c1ccc2c(c1)CCCC2C1=NCCN1 (stereo not shown) [Tetrahydrozoline hydrochloride] as the molecule, how does the “% conversion” value [4] read?
A: 39.98%

Q: What about the inhibition at 20 µM [5] of the same molecule?
A: -10.3%

Q: For NCCCCNCCCN [Spermidine trihydrochloride], which “% conversion” value [4] is on record?
A: 36.29%

Q: And the inhibition at 20 µM [5]?
A: 0.53%

Q: Which “Plate 5 (% inhibition)” value [6] does the source give for Cn1cc(-c2[nH]c3cc(NC(=O)[C@H](N)C4CCCCC4)cc4c3c2C=NNC4=O)cn1 [PF-477736] here?
A: -92.31%

Q: What about the “Plate 5 (% conversion)” value [7] of the same molecule?
A: 67.73%

Q: How did the “% conversion” value [4] turn out when C=C[C@H]1C[N@@]2CC[C@H]1C[C@H]2[C@H](O)c1ccnc2ccc(OC)cc12 [Quinine sulfate] was run?
A: 30.14%

Q: What does the source list for C[N+](C)(C)CCOC(=O)CCC(=O)OCC[N+](C)(C)C [Succinylcholine chloride]?
A: % conversion: 39.43%; inhibition at 20 µM: -8.69%

Q: Which results are given for CC(C)(C)c1o[nH]c(=O)c1CC(N)C(=O)O (stereo not shown) [ATPA]?
A: Plate 1 (% conversion): 36.48%; Plate 1 (% inhibition): -1.82%

Q: How did the “Plate 2 (% conversion)” value turn out when CN1[C@H]2C[C@H](OC(=O)[C@H](CO)c3ccccc3)C[C@@H]1[C@@H](O)C2 (racemic) [(+/-)-Anisodamine] was run?
A: 36.39%

Q: And the “Plate 2 (% inhibition)” value (20 µM)?
A: -1.30%

Q: Which “Plate 3 (% conversion)” value does the source give for CC(=O)N1CCN(c2ccc(OCC3COC(Cn4ccnc4)(c4ccc(Cl)cc4Cl)O3)cc2)CC1 (stereo not shown) [Ketoconazole] here?
A: 46.43%

Q: [H]/N=C(/NC)NCCC[C@H](N)C(=O)O [NG-Monomethyl-L-arginine acetate] was tested. Which “Plate 3 (% conversion)” value [1] did it give?
A: 38.37%

Q: What does the source list for O=P1(N(CCCl)CCCl)NCCCO1 (stereo not shown) [Cyclophosphamide monohydrate]?
A: Plate 1 (% conversion): 38.48%; Plate 1 (% inhibition): -7.77%

Q: Which “Plate 3 (% conversion)” value [1] does the source give for COc1ccc2c(c1OC)C(=O)O[C@@H]2[C@H]1c2c(cc3c(c2OC)OCO3)CCN1C.Cl [Noscapine hydrchloride] here?
A: 38.14%

Q: For NC(=NCc1ccccc1)NC(=O)c1nc(Cl)c(N)nc1N [Benzamil hydrochloride], which “Plate 1 (% inhibition)” value [8] is on record?
A: 8.35%

Q: And the “Plate 1 (% conversion)” value [9]?
A: 33.07%

Q: Which results are given for CC(N)C(O)c1ccc(O)c(O)c1 (single isomer, unassigned; (-)) [(-)-alpha-Methylnorepinephrine]?
A: Plate 2 (% conversion): 7.36%; Plate 2 (% inhibition) (20 µM): 85.40%

Q: CN(C)C[C@H](O)Cn1c2ccc(Br)cc2c2cc(Br)ccc21 (racemic) [Wiskostatin] was tested. Which “% conversion” value [4] did it give?
A: 31.93%

Q: How did the “Plate 3 (% conversion)” value [1] turn out when CC[C@H](C)C(=O)O[C@H]1CCC=C2C=C[C@H](C)[C@H](CC[C@@H]3C[C@@H](O)CC(=O)O3)[C@H]21 [Mevastatin] was run?
A: 41.68%

Q: For Cn1c(=O)c2c(nc(C=Cc3cccc(Cl)c3)n2C)n(C)c1=O [8-(3-Chlorostyryl)caffeine], which “Plate 2 (% conversion)” value is on record?
A: 38.57%

Q: And the “Plate 2 (% inhibition)” value (20 µM)?
A: -7.82%

Q: For NC(Cc1cc(O)c(O)cc1O)C(=O)O (racemic) [6-Hydroxy-DL-DOPA, reference compound], which “Inhibition at 20 µM [%]” value is on record?
A: 103.1%

Q: And the “Plate 2 (% conversion)” value?
A: 1.44%

Q: And the “Plate 2 (% inhibition)” value (20 µM)?
A: 103.09%

Q: For Cl.Nc1c2c(nc3ccccc13)CCCC2, which “Plate 1 (% conversion)” value is on record?
A: 23.39%

Q: With O=C(O)C(=O)N[C@H](Cc1ccccc1)C(=O)O [NOFD, N-oxalyl-D-phenylalanine, reference compound] as the molecule, how does the “IC50 [μM]” value (50 nM His6-AspH315–758, 1.0 μM hFX-CP101–119, 3 μM 2OG, 2 μM Fe(II), 50 mM HEPES pH 7.5, 20 °C, mean ± SD, n = 2 (2,4-PDCA n = 10)) read?
A: weak

Q: And the IC50 (50 nM His6-AspH315–758, 1.0 μM hFX-CP101–119, 3 μM 2OG, 2 μM Fe(II), 50 mM HEPES pH 7.5, 20 °C, mean ± SD, n = 2 (2,4-PDCA n = 10), read-out: IC50)?
A: 15.5 ± 3.13 µM

Q: CC(C)NCC(O)c1cc(O)cc(O)c1.CC(C)NCC(O)c1cc(O)cc(O)c1.O=S(=O)(O)O (stereo not shown) [Metaproterenol hemisulfate] was tested. Which “Plate 3 (% conversion)” value [1] did it give?
A: 40.68%

Q: What does the source list for NS(=O)(=O)c1ccc(-n2nc(C(F)(F)F)cc2-c2ccc(Cl)cc2)cc1 [SC-236]?
A: Plate 3 (% conversion) [1]: 40.00%; Plate 5 (% inhibition) [6]: -23.50%; Plate 5 (% conversion) [7]: 44.31%

Q: What does the source list for Nc1ccc(-c2ccc3ccccc3n2)cc1 [BF-170 hydrochloride]?
A: % inhibition [10]: -2.46%; % conversion [4]: 37.31%

Q: With OC[C@H]1O[C@@H](n2cnc3c(NC4CCCC4)ncnc32)[C@H](O)[C@@H]1O [N6-Cyclopentyladenosine] as the molecule, how does the “Plate 1 (% inhibition)” value [8] read?
A: -4.07%

Q: How did the “Plate 3 (% conversion)” value [1] turn out when Cn1cnc2c(NCc3ccccc3)nc(NCCO)nc21 [Olomoucine] was run?
A: 37.63%

Q: What does the source list for CN1C[C@H](C(=O)N[C@]2(C)O[C@@]3(O)[C@@H]4CCCN4C(=O)[C@H](Cc4ccccc4)N3C2=O)C[C@@H]2c3cccc4[nH]cc(c34)C[C@H]21 [Dihydroergotamine methanesulfonate]?
A: Plate 2 (% conversion): 37.10%; inhibition at 20 µM (read-out: Plate 2 (% inhibition)): -3.42%

Q: For Cc1cc([C@@H]2CCCN2C)on1.Cl [ABT-418 hydrochloride], which “Plate 1 (% conversion)” value is on record?
A: 35.68%

Q: What about the “Plate 1 (% inhibition)” value of the same molecule?
A: 0.56%

Q: With CC(C)(C=O)Cc1cc(C(C)(C)C)c(O)c(C(C)(C)C)c1 [CGP-13501] as the molecule, how does the “Plate 1 (% inhibition)” value [8] read?
A: 0.58%

Q: What about the “Plate 1 (% conversion)” value [9] of the same molecule?
A: 35.68%

Q: For Ro 61-8048, which “Plate 3 (% conversion)” value [1] is on record?
A: 30.86%

Q: For NCCCS(=O)(=O)O.[Na] [3-Amino-1-propanesulfonic acid sodium], which “Plate 1 (% inhibition)” value [8] is on record?
A: -7.08%

Q: What about the “Plate 1 (% conversion)” value [9] of the same molecule?
A: 38.25%

Q: For Cc1[nH]c(=O)c(C#N)cc1-c1ccc2nccn2c1.Cl [Olprinone hydrochloride], which “% conversion” value [4] is on record?
A: 31.06%
